Assay results: ChEMBL document CHEMBL3227996, “New bronchodilators. Synthesis and bronchodilating activity of some 3-(alkoxymethyl)-alpha-(N-substituted aminomethyl)-4-hydroxybenzyl alcohols” (1979)

Legend:
Assay type in all cases: functional
Cavia porcellus [1] = assay: Inhibition of histamine-induced asthma-like syndrome in guinea pig assessed as time delay in appearance of coughing at 5 mg/kg, po treated 30 mins before histamine challenge (reference value: 6.13 mins)
Cavia porcellus [2] = assay: Inhibition of histamine-induced asthma-like syndrome in guinea pig assessed as time delay in appearance of anoxia at 5 mg/kg, po treated 30 mins before histamine challenge (reference value: 5.08 mins)
Cavia porcellus [3] = assay: Inhibition of histamine-induced asthma-like syndrome in guinea pig assessed as time delay in appearance of coughing at 1.25 mg/kg, po treated 30 mins before histamine challenge (reference value: 6.13 mins)
Cavia porcellus [4] = assay: Inhibition of histamine-induced asthma-like syndrome in guinea pig assessed as time delay in appearance of anoxia at 1.25 mg/kg, po treated 30 mins before histamine challenge (reference value: 5.08 mins)
Cavia porcellus [5] = assay: Inhibition of histamine-induced airway resistance in guinea pig administered intravenously 3 mins before histamine challenge; conditions: iv

Row | SMILES | Time (Cavia porcellus [1]) | Time (Cavia porcellus [2]) | Time (Cavia porcellus [3]) | Time (Cavia porcellus [4]) | ED50 (Cavia porcellus [5])
1 | COCc1cc(C(O)CNC(C)C)ccc1O.Cl (configuration not stated) | 15.25 min | 10.38 min | – | – | –
2 | CCOCc1cc(C(O)CNC(C)C)ccc1O.Cl (configuration not stated) | 14.03 min | 9.23 min | – | – | –
3 | COCCOCc1cc(C(O)CNC(C)C)ccc1O.Cl (configuration not stated) | 9.7 min | 8.8 min | – | – | –
4 | COCc1cc(C(O)CNC(C)(C)C)ccc1O.Cl (configuration not stated) | – | – | 20 min | 17.17 min | –
5 | CCOCc1cc(C(O)CNC(C)(C)C)ccc1O.Cl (configuration not stated) | – | – | 14.85 min | 14.55 min | –
6 | COCCOCc1cc(C(O)CNC(C)(C)C)ccc1O.Cl (configuration not stated) | 15.18 min | 13.8 min | 7.88 min | 6.75 min | –
7 | CCOCCOCc1cc(C(O)CNC(C)(C)C)ccc1O.Cl (configuration not stated) | 14.08 min | 8.97 min | 11.81 min | 10.58 min | –
8 | CC(C)(C)NCC(O)c1ccc(O)c(COCCO)c1.Cl (configuration not stated) | 5.97 min | 4.98 min | – | – | –
9 | COCc1cc(C(O)CNC(C)C)cc(COC)c1O.Cl (configuration not stated) | – | – | 11 min | 10.71 min | –
10 | COCc1cc(C(O)CNC(C)(C)C)cc(COC)c1O.Cl (configuration not stated) | – | – | 7.78 min | 7.35 min | –
11 | COCc1cc(C(O)CNC(C)Cc2ccccc2)ccc1O.Cl (configuration not stated) | 11.65 min | 9.61 min | – | – | –
12 | CCOCc1cc(C(O)CNC(C)Cc2ccccc2)ccc1O.Cl (configuration not stated) | 13.92 min | 12.57 min | – | – | –
13 | COCc1cc(C(O)CNC(C)(C)Cc2ccccc2)ccc1O.Cl (configuration not stated) | 11.83 min | 11.35 min | – | – | –
14 | CCOCc1cc(C(O)CNC(C)(C)Cc2ccccc2)ccc1O.Cl (configuration not stated) | 16.08 min | 15.98 min | – | – | –
15 | COCc1cc(C(O)CNC(C)Cc2ccc3c(c2)OCO3)ccc1O.O=C(O)C(=O)O (configuration not stated) | – | – | 12.05 min | 10.43 min | –
16 | COCc1cc(C(O)CNC(C)Cc2ccc(O)cc2)ccc1O.O=C(O)C(=O)O (configuration not stated) | – | – | 20 min | 19.97 min | –
17 | COCc1cc(C(O)CNC(C)Cc2ccc(OC)cc2)ccc1O.O=C(O)/C=C/C(=O)O (configuration not stated) | – | – | 20 min | 19.1 min | 2.75 µg/kg
18 | CC(C)(C)NCC(O)c1ccc(O)c(CO)c1 (configuration not stated) [ALBUTEROL] | 19.13 min | 17.22 min | 9.68 min | 8.1 min | –
19 | CC(C)NCC(O)c1ccc(O)c(O)c1 (configuration not stated) [ISOPROTERENOL] | 17.67 min | 12.71 min | 8.02 min | 6.82 min | –
